Data on two molecules can be found in patent US10640533B2, “Epoxyketone compounds for enzyme inhibition” (CENTRAX INTERNATIONAL, INC., priority 2014, dated 2020).

Values after ≈ are worked out from the molar mass of the structure shown. Like-named read-outs stand apart in the source and are kept apart here.

As usually defined, the solubility is the concentration that dissolves in the medium under given conditions. Read a low solubility as little dissolved substance.

For data set [1], the target named is 20S Immunoproteasome chymotrypsin-like (CT-L) activity (Homo sapiens (Human), UniProt P20618+P28062). In words: 20S immunoproteasome CT-L activity inhibition, fluorogenic substrate succinyl-Leu-Leu-Val-Tyr-AMC. It counts as biochemical. Conditions: purified human 20S proteasome, room temperature, one hour. How it is done: (§1) Inhibition of the 20S proteasome can be determined by methods and assays known in the art, for example, as disclosed by Stein et al., Biochemistry (1996), 35, 3899-3908; by Lightcap et al., Clinical Chemistry, 2000, 46, 673-683; by Kisselev et al., Journal of Biological Chemistry. (2006), 281, 8582-8590 and in U.S. application Ser. No. 09/569,748. The chymotrypsin-like (CT-L), peptidylglutamyl peptide hydrolyzing (PGPH) and trypsin-like (T-L) activities of the 20S proteasome are measured with a fluorogenic substrate assay method using succinyl-Leu-Leu-Val-Tyr-AMC, Z-Leu-Leu-Glu-AMC and Boc-Leu-Arg-Arg-AMC, respectively, as the substrates in an assay buffer. The free fluorophore 7-Amino-4-methylcoumarin (AMC) after cleavage from the substrates is quantified using a fluorometer and activity of CT-L, PGPH and T-L of 20S proteasome is determined.
(§2) Inhibition of the chymotrypsin-like (CT-L), peptidylglutamyl peptide hydrolyzing activity (PGPH), and trypsin-like (T-L) activities of the 20S proteasome in enzymatic assays were determined using succinyl-Leu-Leu-Val-Tyr-AMC (10 μmol/L), Z-Leu-Leu-Glu-AMC (10 μmol/L) and Boc-Leu-Arg-Arg-AMC (50 μmol/L), respectively, as the substrates with purified human 20S proteasome at 2, 4 and 8 nmol/L, respectively, in the assay buffer containing 25 mM HEPES (pH7.5), 0.5 mM EDTA, 0.002% sodium dodecyl sulfate (SDS) and 0.05% NP-40. Stock solutions of the 20S proteasome inhibitors disclosed herein were prepared in dimethyl sulfoxide (DMSO) and the final DMSO concentration in the assay mixture was 1%. Reaction was conducted at room temperature for one hour. Proteasome activity was measured based on detection of the fluorophore 7-Amino-4-methylcoumarin (AMC) after cleavage from the substrates with a plate-based spectrofluorometer.

For data set [2], the target named is 20S Immunoproteasome peptidylglutamyl peptide hydrolyzing (PGPH) activity (Homo sapiens (Human), UniProt P28065+P40306). The data set can be described thus: 20S immunoproteasome PGPH activity inhibition, fluorogenic substrate Z-Leu-Leu-Glu-AMC. It is filed as biochemical. Conditions: purified human 20S proteasome, room temperature, one hour. How it is done:
as §1, §2

Data set [3] addresses 20S Immunoproteasome trypsin-like (T-L) activity (Homo sapiens (Human), UniProt P40306+P49720). In words: 20S immunoproteasome T-L activity inhibition, fluorogenic substrate Boc-Leu-Arg-Arg-AMC. It is filed as biochemical. The conditions noted are these: purified human 20S proteasome, room temperature, one hour. How it is done: as §1, §2
Data set [4] deals with Constitutive 20S proteasome chymotrypsin-like (CT-L) activity (Homo sapiens (Human), UniProt P20618+P28074). The data set can be described thus: Constitutive 20S proteasome CT-L activity inhibition, fluorogenic substrate succinyl-Leu-Leu-Val-Tyr-AMC. It is filed as biochemical. How it is done:
as §1, §2

The target in data set [5] is Constitutive 20S proteasome peptidylglutamyl peptide hydrolyzing (PGPH) activity (Homo sapiens (Human), UniProt P28072+Q99436). In words: Constitutive 20S proteasome PGPH activity inhibition, fluorogenic substrate Z-Leu-Leu-Glu-AMC. Conditions: purified human 20S proteasome, room temperature, one hour. It is filed as biochemical. How it is done:
as §1, §2

Data set [6] has as its target Constitutive 20S proteasome trypsin-like (T-L) activity (Homo sapiens (Human), UniProt P49720+Q99436). The data set can be described thus: Constitutive 20S proteasome T-L activity inhibition, fluorogenic substrate Boc-Leu-Arg-Arg-AMC. It is filed as biochemical. How it is done:
as §1, §2

Data set [7] is described as follows: Aqueous solubility of the compounds. It counts as physicochemical. The conditions noted are these: 50 mM citrate buffer, pH 4, aqueous buffer, thermodynamic from solid, 50 mM citrate pH4.0, 25° C. How it is done:
To determine the solubility of the compounds, 1-5 mg of a compound was weighed into a vial. 1 mL of aqueous buffer (50 mM citrate at pH4.0) was added. The vial was shaken at 25° C. for 24 hours and then centrifuged for 10 min at 10000 rpm. The supernatant was filtered through a 0.45 μm membrane filter and analyzed for the concentration of the compound. In certain embodiments, the aqueous solubility of the compounds is described herein in Table 1.

In data set [8] the test system is CT-L activity of the 20S proteasome in blood samples. The data set can be described thus: Inhibition of proteasome CT-L activity in blood samples from dosed Balb/c mice. It counts as in vivo. Conditions: one hour after dosing, vs vehicle. How it is done:
(§3) The proteasome activity in the blood samples collected from mice administrated of the vehicle was considered as 100% (control group). The remaining activity was calculated by comparing the proteasome activity in the blood samples collected from mice administrated of a compound described herein via intravenous injection (IV) at 10 mg/kg or via oral gavage (PO) at 30 mg/kg to the control group.
(§4) Balb/c mice were administered of either a vehicle (20% (w/v) hydroxypropyl-β-cyclodextrin in 10 mM sodium citrate at pH3.5), or a compound described herein at a tolerated dose via intravenous injection at 10 mg/kg or oral gavage at 30 mg/kg. One hour after dosing, whole blood samples were collected into tubes containing sodium heparin by cardiac puncture and centrifuged at 150×g for 5 minutes at 4° C. The resulting pellet was washed using ice-cold phosphate buffered saline (PBS) three times. […] The concentration of the blood lysate was measured by BCA method. […] The free AMC fluorescence was quantified using a 360/460 nm filter set in a fluorometer to measure the CT-L, PGPH or T-L activities of the 20S proteasome. Percent inhibition of the proteasome activity was calculated by comparing the samples collected from the mice administrated of a compound described herein to the samples collected from the mice administrated of the vehicle. […]

Data set [9] deals with T-L activity of the 20S proteasome in blood samples. The data set can be described thus: Inhibition of proteasome T-L activity in blood samples from dosed Balb/c mice. It counts as in vivo. The conditions noted are these: intravenous 10 mg/kg or oral gavage 30 mg/kg (route not given), one hour after dosing, vs vehicle. How it is done: as §3, §4
Where [10] appears, read: form of 20S proteasome not stated, 'below about'.
Where [11] appears, read: purified human 20S proteasome, room temperature, one hour, read-out: Proteasome inhibition IC50 (nM) Constitutive 20S proteasome CT-L.
Where [12] appears, read: purified human 20S proteasome, room temperature, one hour, read-out: Proteasome inhibition IC50 (nM) Constitutive 20S proteasome T-L.

On to `COC[C@H](NC(=O)[C@H](CCc1ccccc1)NC(=O)c1cc(CN2CCOCC2)on1)C(=O)N[C@@H](Cc1ccccc1)C(=O)[C@@]1(C)CO1` [CX13-603], for which the IC50 in data set [1] was 11.1 nM; in data set [2], over 20000 nM; in data set [3], over 20000 nM; in data set [4] (setting [10]), under 50 nM; in data set [4] (setting [11]), 14.2 nM; in data set [5] it was over 20000 nM. For the same molecule, the IC50 in data set [6] (setting [12]) is over 20000 nM. This molecule yielded a solubility at 24 h in data set [7] of 520 µg/mL (≈ 786 µM). In addition, the “inhibition of CT-L activity in blood samples” value in data set [8] (oral gavage at 30 mg/kg) is given as “inhibited the CT-L activity in blood samples”.
With `COC[C@H](NC(=O)[C@H](CCc1ccccc1)NC(=O)Cc1ccc(CN2CCOCC2)cc1)C(=O)N[C@@H](Cc1ccccc1)C(=O)[C@@]1(C)CO1` [CX13-608], the IC50 was 4.26 nM in [1]; over 20000 nM in data set [2]; 542 nM in data set [3]; under 5 nM in data set [4] (setting [10]); 3.73 nM in data set [4] (setting [11]); over 20000 nM in [5]. In addition, the IC50 in data set [6] (form of 20S proteasome not stated, 'below about', read-out: concentration showing inhibition of T-L activity of the 20S proteasome) was under 500 nM; in data set [6] (setting [12]), 490 nM. The molecule also yielded a solubility at 24 h in data set [7] of 1430 µg/mL (≈ 2090 µM). The “inhibition of CT-L activity in blood samples” value in data set [8] (intravenous 10 mg/kg or oral gavage 30 mg/kg (route not given)) was “inhibited both CT-L and T-L activity”. Moreover, in [9], the “inhibition of T-L activity in blood samples” value is “inhibited both CT-L and T-L activity”.
